Measured values from US20230181535A1, “UBIQUITIN-LIGASE INHIBITORS FOR THE TREATMENT OF CANCER” (FUNDACIÓN PROFESOR NOVOA SANTOS, priority 2020, published 2023).

How the values were obtained:
[1] = tested on: Hakai-dependent ubiquitination of the E-cadherin complex; experiment: Hakai-dependent ubiquitination of the E-cadherin complex (immunoprecipitation); assay type: cell-based; conditions: 293T cells transfected with Flag-Hakai, myc-E-cadherin, v-Src, HA-ubiquitin; IP anti-E-cadherin
Description: For immunoprecipitation experiments, 293 cells were transfected with 3 μg Src, 4 μg Flag-Hakai, and 2 μg HA-ubiquitin and 3 μg E-cadherin with Lipofectamin 2000 (Invitrogen, UK). 24 h after transfection, cells were lysed for 20 min in 1 ml of 1% Triton X-100 lysis buffer (20 mM Tris-HCl pH 7.5, 150 mM NaCl and 1% Triton X-100) containing 10 μg/ml leupeptin, 10 μg/ml aprotinin and 1 mM phenylmethanesulphonyl fluoride (PMSF), supplemented with 10 mM N-ethylmaleimide and 2.5 mM sodium orthovanadate. After centrifugation at 18.000 g for 10 min, the supernatants were immunoprecipitated for 2 h with 2 μg of anti-E-cadherin antibody bound to 60 μl of protein G PLUS-Agarose beads, followed by SDS-polyacrylamide gel electrophoresis (PAGE) and western blotting with the indicated antibodies as previously reported.

[2] = tested on: HT-29 colon tumour cell line; experiment: MTT cell viability assay, HT-29; assay type: cell-based, human; conditions: increasing range of concentrations
Description: (§1) For cytotoxicity assays, 1×10^4 cells were seeded per well into a 96-well plate. After 24 h cells were treated with the indicated inhibitors for 72 h and a MTT colorimetric cell viability assay was performed following manufacturer's instructions (Sigma Aldrich, St Louis, Mo.). Absorbance was measured at 570 and 630 nm using a Multiskan Plus Reader (Nanoquant Infinite M200 Tecan Trading AG, Switzerland). Dose-response curves were designed with Graph Pad Prism Software and the half-maximal inhibitory concentration (IC50) values were calculated. Represented data are the mean±SEM of at least three independent experiments with six replicates per condition.

[3] = tested on: LoVo colon tumour cell line; experiment: MTT cell viability assay, LoVo; assay type: cell-based; conditions: increasing range of concentrations
Description: as §1

[4] = tested on: normal epithelial MDCK cell line; experiment: MTT cell viability assay, MDCK; assay type: cell-based; conditions: compared with Hakai-MDCK
Description: as §1

[5] = tested on: Hakai-MDCK cell lines (clone 4 and clone 11); experiment: MTT cell viability assay, Hakai-MDCK; assay type: cell-based; conditions: Hakai-MDCK clone 4 and clone 11, compared with MDCK
Description: as §1

[6] = tested on: HT-29 cells; experiment: Phase-contrast cell phenotype, HT-29; assay type: cell-based, human
Description: MDCK, HEK293T, HepG2, MCF7 and ACHN cells were cultured in Dulbecco's Modified Eagles Medium (DMEM). MDCK stably expressing Hakai cells (Hakai-MDCK) were previously reported and were growth in DMEM with G418 (800 μg/ml). […] LoVo and PC-3 cells were cultured in F-12K Medium (Kaighn's Modification of Ham's F-12 Medium) and HT-29 and HCT116 cells in McCoy's 5a Medium Modified. 5637 cells were cultured in RPMI medium. All culture media were supplemented with 1% penicillin/streptomycin and 10% of heat-inactivated fetal bovine serum (FBS) at 37° C. in a humidified incubator with 5% CO2. Cells were monthly tested for mycoplasma contamination and used only for 1-3 months after defrosted. LoVo and HT29 cells were authenticated with the StemElite ID system (Promega). For phase-contrast images, culture cells were photographed with a Nikon Eclipse-TI microscope.

[7] = tested on: HT-29 cells; experiment: Western blotting of EMT markers, HT-29; assay type: cell-based, human; conditions: HT-29; 48 h
Description: For western blot analysis, cells were treated with the indicated inhibitors for 48 h and the whole cell extracts were obtained as described previously. Twenty micrograms of lysates were resolved on a 10% polyacrilamide SDS-PAGE followed by western blot analysis performed as previously described. For immunofluorescence assays cells were grown for 24 h on glass coverslips and treated with the indicated inhibitors for 48 h. Cells were fixed with 4% PFA for 15 min, permeabilized with 0.5% […] and incubated with E-cadherin antibody for 2 h. Coverslips were incubated with fluorescein-tagged secondary antibody (Dakopatts, Sweden) for […]. Finally coverslips were mounted with ProLong Gold antifade reagent (LifeTech, UK) and images were taken in epifluorescence microscope (Olympus) using 40× objective. Immunofluorescence of E-cadherin and DNA content analysis for FIGS. 22-23 were performed culturing of HT-29 human colorectal adenocarcinoma cell line in 384-well plates with densities of 3,000 cells per well in a total volume of 25 μl. After the completion of the staining, four images (2×2 array) of each well were taken with Vala Sciences' SIM™ with a 20× objective. Each image was acquired as a SIM Synthetic Focus with a z-stack range of 6 μm with 1 μm steps. The SIM Synthetic Focus feature will compile a “best focus” images from multiple images. One set of SIM Synthetic Focus images were taken in the DAPI channel for Hoechst 33342 staining, and another set of images were taken in the FITC channel for anti-E-cadherin-AlexaFluor488 labeling and analysed by Structured Illumination Microscopy (SIM™) platform to image the cells and Vala's CyteSeer® Cell-Cell Junction Algorithm to quantify the degree of expression and intracellular location of E-cadherin Vala's CyteSeer® Software can also measure relative DNA content by analyzing Total Integrated Intensity (TII) of the Nuclear Image (Ni) on the Nuclear Mask (Nm). This analysis was performed by Vala Science. Twenty compounds from were assayed in a “blinded” manner, at 2 test concentrations in 6 replicate wells for first assay and 3 replicate for second assay.

[8] = tested on: mesenchymal Hakai-MDCK cells; experiment: E-cadherin protein levels in Hakai-MDCK cells; assay type: cell-based; conditions: Hakai-MDCK cells (no basal E-cadherin)
Description: (§2) For western blot analysis, cells were treated with the indicated inhibitors for 48 h and the whole cell extracts were obtained as described previously. Twenty micrograms of lysates were resolved on a 10% polyacrilamide SDS-PAGE followed by western blot analysis performed as previously described. For immunofluorescence assays cells were grown for 24 h on glass coverslips and treated with the indicated inhibitors for 48 h. Cells were fixed with 4% PFA for 15 min, permeabilized with 0.5% […] and incubated with E-cadherin antibody for 2 h. Coverslips were incubated with fluorescein-tagged secondary antibody (Dakopatts, Sweden) for […]. Finally coverslips were mounted with ProLong Gold antifade reagent (LifeTech, UK) and images were taken in epifluorescence microscope (Olympus) using 40× objective. […] One set of SIM Synthetic Focus images were taken in the DAPI channel for Hoechst 33342 staining, and another set of images were taken in the FITC channel for anti-E-cadherin-AlexaFluor488 labeling and analysed by Structured Illumination Microscopy (SIM™) platform to image the cells and Vala's CyteSeer® Cell-Cell Junction Algorithm to quantify the degree of expression and intracellular location of E-cadherin Vala's CyteSeer® Software can also measure relative DNA content by analyzing Total Integrated Intensity (TII) of the Nuclear Image (Ni) on the Nuclear Mask (Nm). […]

[9] = tested on: LoVo cells; experiment: Immunofluorescence of E-cadherin, LoVo; assay type: cell-based; conditions: 48 h, vs DMSO
Description: as §2

[10] = tested on: breast cancer MCF7 cell; experiment: BrdU proliferation assay, MCF7; assay type: cell-based, human; conditions: 48 h
Description: For BrdU assays, 1×10^4 of indicated cells were plated per well into a 96-well plate. After 24 h, cells were treated with the indicated inhibitors for 48 h. Three independent experiments were plated with six replicates per each condition. Cells were treated with […] BrdU for 2 h. BrdU incorporation into newly synthesized DNA was measured using a cell proliferation colorimetric immunoassay kit according to the manufacturer's instructions (Roche, Switzerland). Results are expressed as mean±S.D. Results are represented as percentage of positive cells (mean±S.D) of three independent experiments.

[11] = tested on: tumour culture cells; experiment: In vitro antitumor effect (summary of cell assays); assay type: cell-based

**Q.** For `O=C(O)c1ccc(-n2nnnc2SCC(=O)c2ccc([N+](=O)[O-])cc2)cc1` [Hakin-1, 4-(5-[2-(4-nitrophenyl)-2-oxoethyl]thiol-1H-tetrazol-1-yl)benzoic acid], which “Hakai-dependent ubiquitination of E-cadherin complex” value [1] is on record?
**A.** Its value is “reduction of Hakai-dependent ubiquitination of E-cadherin complex”.

**Q.** What about the “cytotoxicity (cell viability, MTT)” value [2] of the same compound?
**A.** Its value is “important inhibitory response”.

**Q.** What about the “cytotoxicity (cell viability, MTT)” value [3] of the same compound?
**A.** Its value is “important inhibitory response”.

**Q.** What about the “sensitivity to treatment (cell viability, MTT)” value [4] of the same compound?
**A.** Its value is “more resistant”.

**Q.** And the “sensitivity to treatment (cell viability, MTT)” value [5]?
**A.** The value was “more sensitive”.

**Q.** And the “cell phenotype by phase contrast” value [6]?
**A.** Its value is “modestly induce an epithelial phenotype”.

**Q.** And the “Cortactin expression levels (western blotting)” value [7]?
**A.** The value was “increase expression levels”.

**Q.** And the “E-cadherin levels (western blotting)” value [7]?
**A.** The value was “increase E-cadherin levels”.

**Q.** And the “Vimentin mesenchymal marker (western blotting)” value [7]?
**A.** Its value is “reduced”.

**Q.** And the E-cadherin protein levels [8]?
**A.** Its E-cadherin protein levels is “no recovery was detected”.

**Q.** What about the “E-cadherin levels at cell-cell contacts (immunofluorescence)” value [9] of the same compound?
**A.** Its value is “significant increase E-cadherin levels at cell-cell contacts”.

**Q.** And the “cell proliferation (BrdU)” value [10]?
**A.** Its value is “inhibited cell proliferation”.

**Q.** And the “concentration at which the in vitro antitumor effect was observed” value [11]?
**A.** Its value is 100 to 200 µM.
